Assay results published in patent US20150175599A1, “FAAH Inhibitors” (Ironwood Pharmaceuticals, Inc., priority 2010, published 2015).

Target: T1, human FAAH-1 (Homo sapiens, UniProt O00519)
T1 sequence (O00519 1-579): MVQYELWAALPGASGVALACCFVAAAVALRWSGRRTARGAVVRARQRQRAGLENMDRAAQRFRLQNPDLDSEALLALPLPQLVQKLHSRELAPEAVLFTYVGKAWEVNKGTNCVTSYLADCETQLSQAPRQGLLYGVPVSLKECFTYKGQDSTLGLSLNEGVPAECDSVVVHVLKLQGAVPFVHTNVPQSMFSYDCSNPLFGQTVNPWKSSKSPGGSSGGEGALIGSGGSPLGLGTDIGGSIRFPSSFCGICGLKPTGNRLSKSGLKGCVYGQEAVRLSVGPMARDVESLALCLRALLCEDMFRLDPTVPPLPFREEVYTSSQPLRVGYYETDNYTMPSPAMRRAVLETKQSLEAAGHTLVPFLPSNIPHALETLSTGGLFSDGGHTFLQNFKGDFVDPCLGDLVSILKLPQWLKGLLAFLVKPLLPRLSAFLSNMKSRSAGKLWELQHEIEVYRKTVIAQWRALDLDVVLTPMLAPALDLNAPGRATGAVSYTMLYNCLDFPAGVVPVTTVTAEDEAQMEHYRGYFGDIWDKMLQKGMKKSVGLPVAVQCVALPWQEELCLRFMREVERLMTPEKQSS
Assay: Whole cell anandamide hydrolysis assay (HeLa clone 5c5 transfected with human FAAH-1)
Type: cell-based
Settings: HeLa clone 5c5 expressing human FAAH-1; read-out: human FAAH whole cell IC50
In short: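 Stable HeLa clone 5c5 expressing human FAAH-1, pre-incubated with compound 10 min at 37° C in DMEM/F12 with 15 mM HEPES pH 7.4 and 0.1% fatty-acid-free BSA. [3H]-anandamide (5 μM stock) added for 15 min; [3H]-ethanolamine separated on charcoal and counted. IC50 from curves constrained to 100% and 0%.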

Compound `COc1cc(NC(=O)C(=O)c2c(C)n(Cc3ccc(Cl)cc3)c3cccnc23)ccn1` [Compound 3, 2-(1-(4-chlorobenzyl)-2-methyl-1H-pyrrolo[3,2-b]pyridin-3-yl)-N-(2-methoxypyridin-4-yl)-2-oxoacetamide] has an IC50 of less than 100 nM.
Compound `COc1cc(NC(=O)C(=O)c2c(C)n(Cc3ccc(Cl)cc3)c3ccc(C(=O)O)cc23)ccn1` [Compound 4, 1-(4-chlorobenzyl)-3-(2-(2-methoxypyridin-4-ylamino)-2-oxoacetyl)-2-methyl-1H-indole-5-carboxylic acid] has an IC50 of 1000 to 10000 nM.
`COc1ccc2c(c1)c(C(=O)C(=O)Nc1ccnc(OC)c1)c(C)n2Cc1cccnc1` [Compound 78, 2-(5-methoxy-2-methyl-1-(pyridin-3-ylmethyl)-1H-indol-3-yl)-N-(2-methoxypyridin-4-yl)-2-oxoacetamide] gave an IC50 of less than 100 nM.
`COc1ccc2c(c1)c(C(=O)C(=O)Nc1ccnc(OC)c1)c(C)n2Cc1ccc(Cl)cn1` [Compound 79, 2-(1-((5-chloropyridin-2-yl)methyl)-5-methoxy-2-methyl-1H-indol-3-yl)-N-(2-methoxypyridin-4-yl)-2-oxoacetamide] gave an IC50 of less than 100 nM.
With `COc1cc(NC(=O)C(=O)c2c(C)n(Cc3ccc(Cl)cc3)c3cc(OC)c(Cl)cc23)ccn1` [Compound 80, 2-(5-chloro-1-(4-chlorobenzyl)-6-methoxy-2-methyl-1H-indol-3-yl)-N-(2-methoxypyridin-4-yl)-2-oxoacetamide] the IC50 was less than 100 nM.
`COc1ccc2c(c1)c(C(=O)C(=O)Nc1ccnc(OC)c1)c(C)n2Cc1ncc(F)cc1F` [Compound 81, 2-(1-((3,5-difluoropyridin-2-yl)methyl)-5-methoxy-2-methyl-1H-indol-3-yl)-N-(2-methoxypyridin-4-yl)-2-oxoacetamide] was tested, and the IC50 was less than 100 nM.
For `COc1ccc2c(c1)c(C(=O)C(=O)Nc1ccnc(OC)c1)c(C)n2Cc1ncc(Cl)cc1Cl` [Compound 82, 2-(1-((3,5-dichloropyridin-2-yl)methyl)-5-methoxy-2-methyl-1H-indol-3-yl)-N-(2-methoxypyridin-4-yl)-2-oxoacetamide], the IC50 was less than 100 nM.
Work on `COc1ccc2c(c1)c(C(=O)C(=O)Nc1ccnc(OC)c1)c(C)n2Cc1ncccn1` [Compound 83, 2-(5-methoxy-2-methyl-1-(pyrimidin-2-ylmethyl)-1H-indol-3-yl)-N-(2-methoxypyridin-4-yl)-2-oxoacetamide] yielded an IC50 of 100 to 1000 nM.
`COc1ccc2c(c1)c(C(=O)C(=O)Nc1ccnc(OC)c1)c(C)n2Cc1ccc(C)cn1` [Compound 84, 2-(5-methoxy-2-methyl-1-((5-methylpyridin-2-yl)methyl)-1H-indol-3-yl)-N-(2-methoxypyridin-4-yl)-2-oxoacetamide] gave an IC50 of less than 100 nM.
For `COc1cc(NC(=O)C(=O)c2c(C)n(Cc3ccc(F)cn3)c3ccc(C)cc23)ccn1` [Compound 85, 2-(1-((5-fluoropyridin-2-yl)methyl)-2,5-dimethyl-1H-indol-3-yl)-N-(2-methoxypyridin-4-yl)-2-oxoacetamide], the IC50 was less than 100 nM.
For `COc1ccc2c(c1)c(C(=O)C(=O)Nc1ccnc(OC)c1)c(C)n2Cc1ccc(Cl)nn1` [Compound 86, 2-(1-((6-chloropyridazin-3-yl)methyl)-5-methoxy-2-methyl-1H-indol-3-yl)-N-(2-methoxypyridin-4-yl)-2-oxoacetamide], the IC50 was less than 100 nM.
`COc1ccc2c(c1)c(C(=O)C(=O)Nc1ccnc(OC)c1)c(C)n2Cc1ncc(Cl)cc1F` [Compound 87, 2-(1-((5-chloro-3-fluoropyridin-2-yl)methyl)-5-methoxy-2-methyl-1H-indol-3-yl)-N-(2-methoxypyridin-4-yl)-2-oxoacetamide] was tested, and the IC50 was less than 100 nM.
Work on `COc1cc(NC(=O)C(=O)c2c(C)n(Cc3ccc(Cl)cc3)c3cc(F)c(C)cc23)ccn1` [Compound 89, 2-(1-(4-chlorobenzyl)-6-fluoro-2,5-dimethyl-1H-indol-3-yl)-N-(2-methoxypyridin-4-yl)-2-oxoacetamide] yielded an IC50 of less than 100 nM.
`COc1cc(NC(=O)C(=O)c2c(C)n(Cc3ccc(Cl)cn3)c3cc(F)c(C)cc23)ccn1` [Compound 90, 2-(1-((5-chloropyridin-2-yl)methyl)-6-fluoro-2,5-dimethyl-1H-indol-3-yl)-N-(2-methoxypyridin-4-yl)-2-oxoacetamide] showed an IC50 of less than 100 nM.
Work on `COc1cc(NC(=O)C(=O)c2c(C)n(Cc3ccc(Cl)cc3F)c3cc(F)c(OC)cc23)ccn1` [Compound 91, 2-(1-(4-chloro-2-fluorobenzyl)-6-fluoro-5-methoxy-2-methyl-1H-indol-3-yl)-N-(2-methoxypyridin-4-yl)-2-oxoacetamide] yielded an IC50 of less than 100 nM.
For `COc1cc(NC(=O)C(=O)c2c(C)n(Cc3ccc(Cl)cc3Cl)c3cc(F)c(OC)cc23)ccn1` [Compound 92, 2-(1-(2,4-dichlorobenzyl)-6-fluoro-5-methoxy-2-methyl-1H-indol-3-yl)-N-(2-methoxypyridin-4-yl)-2-oxoacetamide], the IC50 was less than 100 nM.
Work on `COc1cc(NC(=O)C(=O)c2c(C)n(Cc3ccc(Cl)cc3)c3cc(Cl)c(C)cc23)ccn1` [Compound 93, 2-(6-chloro-1-(4-chlorobenzyl)-2,5-dimethyl-1H-indol-3-yl)-N-(2-methoxypyridin-4-yl)-2-oxoacetamide] yielded an IC50 of less than 100 nM.
Compound `COc1cc(NC(=O)C(=O)c2c(C)n(Cc3ccc(Cl)cn3)c3cc(Cl)c(C)cc23)ccn1` [Compound 94, 2-(6-chloro-1-((5-chloropyridin-2-yl)methyl)-2,5-dimethyl-1H-indol-3-yl)-N-(2-methoxypyridin-4-yl)-2-oxoacetamide] has an IC50 of less than 100 nM.
